Assay results as given in patent publication US6310247A, “7-aryl-6(Z)-heptatrienoic acid retinamides” (Hoffmann-LA Roche Inc., priority 1999, dated 2001).
Read-outs that look alike come from different tables or passages of the source.

Legend:
Type in all cases: cell-based
MDA 231 cells = experiment: Cell growth inhibition: MTT assay, MDA 231 (ER- breast carcinoma); conditions: Homo sapiens, MDA-MB-231, read-out: % inhibition of cell growth compared to no drug control
Procedure: ER- breast carcinoma, human (MDA-231) obtained from ATCC (HTB 22), were grown in Eagle's MEM medium supplemented with non-essential amino acids, sodium pyruvate, and Earle's BSS, 10% FBS, and 13 ng/mL gentamicin. Cells were incubated at 37° C., 4.5% CO2 and 95.5% humidified air.
(§1) 1. Cell growth inhibition: MTT Assay
(§2) The compounds of formula 1 were tested for ability to inhibit cell growth using the standard MTT assay, a tetrazolium-based assay which measures the viability of cells in culture. Cells were harvested upon reaching 70-80% confluency and pelleted. The cells were then resuspended in medium in which FBS was replaced with Hyclone's Charcoal/Dextran stripped FBS, and seeded (2 mL/well) into 6-well plates (Corning) at a density allowing for linear growth over a four day assay period. Compounds of formula 1 (10 mM stock in dimethylsulfoxide (DMSO)) were added 18-24 hours post-seeding. Compound dilutions were prepared in the appropriate growth media and added to the cells for final concentrations of 10, 3.3 and 1 μM in 0.1% DMSO. At 24, 48 and 72 hr. time points, MTT (3-[4,5-dimethylthiazol-2-yl-2,5-diphenyltetrazolium bromide) stock solution (5mg/mL in 1 PBS) was added to the cells plates (625 μL/well) which were then incubated for 2.5 hours. Liquid was aspirated from the wells and 1 mL/well of 95% ethanol was added to solubilize the formazan reaction product. The plates were shaken (Bellco Mini-Orbital Shaker) for 15 minutes. The solubilized formazan was then transferred (50 μls) into a 96-well plate and the optical densities (OD) were measured (Bio-Tek Microplate Reader) at 570 nm and reference wavelength of 660 nm. Percentage of inhibition of cell growth was calculated according to the following formula: [formula]

MDA 435 cells = experiment: Cell growth inhibition: MTT assay, MDA 435 (ER- breast carcinoma); conditions: Homo sapiens, MDA435, read-out: % inhibition of cell growth compared to no drug control
Procedure: ER- breast carcinoma, human (MDA-435) obtained from Dr. Janet Price, MDA Cancer Center, Houston, Tex., were grown in Gibco's RPMI 1640 media supplemented with sodium pyruvate, 10% FBS and 13 ng/mL gentamicin. Cells were incubated at 37° C., 4.5% CO2 and 95.5% humidified air.
as §1, §2

ZR-75-1 cells = experiment: Cell growth inhibition: MTT assay, ZR-75-1 (ER+ breast carcinoma); conditions: Homo sapiens, read-out: % inhibition of cell growth compared to no drug control
Procedure: ER+ breast carcinoma, human (ZR-75-1) obtained from ATCC (CRL 1500), were grown in Gibco's RPMI 1640 media supplemented with sodium pyruvate, 10% FBS and 13 ng/mL gentamicin. Cells were incubated at 37° C., 4.5% CO2 and 95.5% humidified air.
as §1, §2

Question: How did the inhibition at 1 µM (MDA 231 cells; 24 hours) turn out when `C/C(=C/C=C/C(C)=C/C(=O)Nc1ccc(O)cc1)c1cc(C(F)(F)F)cc(C(F)(F)F)c1` [N-(4-hydroxyphenyl)-(2E,4E,6Z)-7-[3,5-bis(trifluoromethyl)phenyl]-3,7-dimethyl-2,4,6-heptatrienamide] was run?
Answer: 18%

Question: What about the inhibition at 3.3 µM (MDA 231 cells; 24 hours) of the same compound?
Answer: 30%

Question: What about the inhibition at 10 µM (MDA 231 cells; 24 hours) of the same compound?
Answer: 26%

Question: And the inhibition at 1 µM (MDA 231 cells; 48 hours)?
Answer: 39%

Question: What about the inhibition at 3.3 µM (MDA 231 cells; 48 hours) of the same compound?
Answer: 35%

Question: And the inhibition at 10 µM (MDA 231 cells; 48 hours)?
Answer: 61%

Question: What about the inhibition at 1 µM (MDA 231 cells; 72 hours) of the same compound?
Answer: 46%

Question: What about the inhibition at 3.3 µM (MDA 231 cells; 72 hours) of the same compound?
Answer: 62%

Question: And the inhibition at 10 µM (MDA 231 cells; 72 hours)?
Answer: 71%

Question: What about the inhibition at 1 µM (MDA 435 cells; 24 hours) of the same compound?
Answer: 47%

Question: And the inhibition at 3.3 µM (MDA 435 cells; 24 hours)?
Answer: 78%

Question: And the inhibition at 10 µM (MDA 435 cells; 24 hours)?
Answer: 77%

Question: And the inhibition at 1 µM (MDA 435 cells; 48 hours)?
Answer: 59%

Question: What about the inhibition at 3.3 µM (MDA 435 cells; 48 hours) of the same compound?
Answer: 91%

Question: What about the inhibition at 10 µM (MDA 435 cells; 48 hours) of the same compound?
Answer: 95%

Question: And the inhibition at 1 µM (MDA 435 cells; 72 hours)?
Answer: 94%

Question: What about the inhibition at 3.3 µM (MDA 435 cells; 72 hours) of the same compound?
Answer: 96%

Question: And the inhibition at 10 µM (MDA 435 cells; 72 hours)?
Answer: 98%

Question: And the inhibition at 1 µM (ZR-75-1 cells; 24 hours)?
Answer: 1%

Question: And the inhibition at 3.3 µM (ZR-75-1 cells; 24 hours)?
Answer: 14%

Question: And the inhibition at 10 µM (ZR-75-1 cells; 24 hours)?
Answer: 21%

Question: And the inhibition at 1 µM (ZR-75-1 cells; 48 hours)?
Answer: 0%

Question: And the inhibition at 3.3 µM (ZR-75-1 cells; 48 hours)?
Answer: 18%

Question: What about the inhibition at 10 µM (ZR-75-1 cells; 48 hours) of the same compound?
Answer: 30%

Question: And the inhibition at 1 µM (ZR-75-1 cells; 72 hours)?
Answer: 13%

Question: And the inhibition at 3.3 µM (ZR-75-1 cells; 72 hours)?
Answer: 56%

Question: And the inhibition at 10 µM (ZR-75-1 cells; 72 hours)?
Answer: 64%
